pIC50: −log10 of the molar value.

By pIC50 is commonly meant the negative decadic logarithm of the IC50, by convention in mol/L.

The target of one experiment is BRD4-BD1 (Homo sapiens (Human), UniProt O60885). Briefly: AlphaLisa bromodomain binding assay, BRD4-BD1. Conditions: Table 6; read-out: BRD4(1) IC50.
Another experiment addresses BRD4-BD2 (Homo sapiens (Human), UniProt O60885). Briefly: AlphaLisa bromodomain binding assay, BRD4-BD2. The following applies: Table 6; read-out: BRD4(2) IC50. The source says: (§1) An AlphaLisa assay was used to observe bromodomain binding and measure IC50s for the compounds disclosed herein. An AlphaLisa assay is a bead-based assay used to detect interactions between bromodomains and polyacetylated histone peptides. Donor and acceptor beads bound to target and ligand are brought into proximity by this protein-protein interaction.
(§2) Equipment Required • 1. […] Plate centrifuge • 3. Plate shaker • 4. […] Single channel and multi-channel pipettes • 6. Microplate reader (Pherastar)
(§3) Stock and Final Assay Concentrations (FAC) • 1. All reference and test compounds are made at a concentration of 10 mM in DMSO. Compounds are serially diluted in DMSO and a FAC starting from 10 μM to 10 point 3 fold serial dilutions is arrived. FAC of DMSO is 1%. • 2. Enzyme stock and FAC
(§4) Biotinylated substrate (Acetylated histone H4, biotinylated substrate—cat no. AS64989-025, Anaspec) stock and FAC
(§5) • 4. Acceptor and donor beads stock and FAC
(§6) Buffers • For the enzyme and substrate dilution following buffer is used (for 50 ml) • HEPES: 50 mM 2.5 ml • NaCl: 25 mM 1.25 ml • DTT: 10 mM 0.05 ml • BSA: 0.1% 0.05 g • MilliQ water: 45.7 ml • For dilution of acceptor and donor beads AlphaLISA 5× epigenetics Buffer Perkin Elmer (Cat: AL008C) is used at 1× concentration.
(§7) Procedure • 1. […] Tap the plate gently • 3. […] Cover with plate sealer • 5. […] Incubate the plate at room temperature for 10 minutes • 7. Add 10 μl of the substrate • 8. Cover with plate sealer • 9. […] Cover with plate sealer • 14. […] Cover with plate sealer • 18.
(§8) The percent inhibition is calculated in the excel analysis template and the IC50 values are subsequently determined using a sigmoidal dose-response curve (variable slope) using GraphPad Prism® 5 software.

A further experiment addresses BRD2-BD1 (Homo sapiens (Human), UniProt P25440). Briefly: AlphaLisa bromodomain binding assay, BRD2-BD1. Conditions: Table 6; read-out: BRD2(1) IC50.
From the text: as §1, §2, §3, §4, §5, §6, §7, §8
(In general: Alpha assays give light when donor and acceptor beads are brought close together.)

Another experiment concerns the target BRD3-BD1 (Homo sapiens (Human), UniProt Q15059). Briefly: AlphaLisa bromodomain binding assay, BRD3-BD1. Conditions: Table 6; read-out: BRD3(1) IC50.
From the text: as §1, §2, §3, §4, §5, §6, §7, §8

The next experiment concerns the target BRDT-BD1 (Homo sapiens (Human), UniProt Q58F21). Briefly: AlphaLisa bromodomain binding assay, BRDT-BD1. The following applies: Table 6; read-out: BRDT(1) IC50.
From the text: as §1, §2, §3, §4, §5, §6, §7, §8

Another experiment deals with JAK2 (Homo sapiens (Human), UniProt O60674). Briefly: HTRF kinase assay, JAK2. The experiment is classed as biochemical. Conditions: Table 6. A general note: TR-FRET usually uses a lanthanide donor and a delayed reading to cut background.
Sequence of JAK2 (O60674 whole entry): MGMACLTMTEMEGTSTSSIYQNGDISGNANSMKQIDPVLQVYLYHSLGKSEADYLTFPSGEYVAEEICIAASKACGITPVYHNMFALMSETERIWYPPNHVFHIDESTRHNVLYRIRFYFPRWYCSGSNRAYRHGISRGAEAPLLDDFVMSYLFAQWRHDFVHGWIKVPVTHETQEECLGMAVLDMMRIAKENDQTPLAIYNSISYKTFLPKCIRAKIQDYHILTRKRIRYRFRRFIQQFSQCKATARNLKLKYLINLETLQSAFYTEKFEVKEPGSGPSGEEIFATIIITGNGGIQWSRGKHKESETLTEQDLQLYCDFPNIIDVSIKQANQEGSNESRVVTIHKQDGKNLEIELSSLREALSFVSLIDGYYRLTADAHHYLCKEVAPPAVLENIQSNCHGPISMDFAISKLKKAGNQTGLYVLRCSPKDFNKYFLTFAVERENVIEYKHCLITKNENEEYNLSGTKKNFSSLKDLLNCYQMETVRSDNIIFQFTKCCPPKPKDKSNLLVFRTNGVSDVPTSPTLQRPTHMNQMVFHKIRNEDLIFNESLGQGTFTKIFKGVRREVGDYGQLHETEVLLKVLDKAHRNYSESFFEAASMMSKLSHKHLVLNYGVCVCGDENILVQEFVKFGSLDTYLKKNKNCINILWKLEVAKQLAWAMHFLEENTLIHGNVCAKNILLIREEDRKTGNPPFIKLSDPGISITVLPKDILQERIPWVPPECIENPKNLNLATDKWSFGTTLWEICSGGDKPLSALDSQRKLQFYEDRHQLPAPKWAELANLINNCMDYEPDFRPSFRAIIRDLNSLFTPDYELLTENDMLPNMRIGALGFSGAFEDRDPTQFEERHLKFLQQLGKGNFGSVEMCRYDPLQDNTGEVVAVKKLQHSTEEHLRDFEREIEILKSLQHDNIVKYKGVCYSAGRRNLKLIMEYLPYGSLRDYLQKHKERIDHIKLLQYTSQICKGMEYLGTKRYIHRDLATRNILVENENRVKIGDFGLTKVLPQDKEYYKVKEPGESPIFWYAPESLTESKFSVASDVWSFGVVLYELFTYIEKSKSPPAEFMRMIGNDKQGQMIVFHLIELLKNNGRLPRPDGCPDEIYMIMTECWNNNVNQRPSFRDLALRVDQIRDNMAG

Sequence of BRD2-BD1 (P25440 74-180): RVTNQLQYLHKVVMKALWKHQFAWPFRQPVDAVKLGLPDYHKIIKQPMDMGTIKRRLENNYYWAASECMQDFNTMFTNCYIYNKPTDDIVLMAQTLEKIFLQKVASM
Sequence of BRD3-BD1 (Q15059 34-140): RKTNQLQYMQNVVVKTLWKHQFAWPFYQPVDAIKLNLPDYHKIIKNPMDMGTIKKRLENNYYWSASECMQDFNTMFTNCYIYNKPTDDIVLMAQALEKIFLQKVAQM

Turning to `Cc1ccc(Nc2nc(Nc3ccc(N4CCN(C)CC4)cc3)nc3ccccc23)cc1NS(=O)(=O)C(C)(C)C`, the negative logarithm of the IC50 (pIC50) is 6.33 at BRD4-BD1; 5.95 on BRD4-BD2; 6.20 on BRD2-BD1; 5.49 at BRD3-BD1; 5.74 on BRDT-BD1.
In the case of `CN1CCC(Nc2nc(Nc3ccc4c(c3)N(S(=O)(=O)C(C)(C)C)CC4)c3ccsc3n2)CC1` [drawing 204], the pIC50 was 6.80 at BRD4-BD1, 6.53 on BRD4-BD2, 6.11 on BRD2-BD1 and 6.48 on BRD3-BD1.
The like results for `COc1cc(Nc2nc(Nc3ccc(N4CCN(C)CC4)cc3)nc3ccccc23)ccc1Cl` were, in that order, 5.20, 5.28, 6.10 and 5.08.
`CN1CCN(c2ccc(Nc3nc4c(c(Nc5cccc(NS(=O)(=O)C(C)(C)C)c5)n3)COC4)cc2)CC1` [drawing 206]: the negative-log IC50 (pIC50) was 6.00 on BRD4-BD2, 5.75 on BRD2-BD1 and 5.61 at BRD3-BD1.
With `CC(C)(C)S(=O)(=O)Nc1cccc(-n2ccc3cnc(Nc4ccc(N5CCNCC5)c(F)c4)nc32)c1` [drawing 432], the figures for the negative-log IC50 (pIC50) at BRD4-BD1 and on JAK2 were 6.76 and 8.10, respectively.
Take `CN1CCN(c2cccc(Nc3ncc4ccn(-c5cccc(NS(=O)(=O)C(C)(C)C)c5)c4n3)c2)CC1`: the negative-log IC50 (pIC50) on BRD4-BD1 was 5.77; on JAK2 it was 7.13.
In the same order, the values of `CN1CCN(c2ccc(Nc3ncc4ccn(-c5cccc6c5CCN6S(=O)(=O)C(C)(C)C)c4n3)cc2)CC1` are 5.00 and 8.10.
The like results for `CC(C)(C)S(=O)(=O)Nc1cccc(-c2csc3cnc(Nc4ccc5c(c4)CC4CNCCN54)nc23)c1` (centres unmarked) were, in that order, 6.50 and 8.30.
The like results for `CN(C)C1CCN(c2ccc(Nc3ncc4ccn(-c5cccc(NS(=O)(=O)C6(C)CC6)c5)c4n3)cc2)CC1` were, in that order, 6.20 and 8.22.
As to `CN1CCC(NC(=O)c2ccc(Nc3ncc4ccn(-c5ccc(F)c(NS(=O)(=O)C(C)(C)C)c5)c4n3)cc2)CC1`, the values for the pIC50 on BRD4-BD1 and at JAK2 were 6.43 and 6.75, respectively.
`CN(C)C1CCN(c2ccc(Nc3ncc4ccn(-c5ccc(F)c(NS(=O)(=O)C(C)(C)C)c5)c4n3)cc2F)CC1` [drawing 397]: the figures for the pIC50 on BRD4-BD1 and on JAK2 were 7.20 and 7.57, respectively.
As for `Cc1cnc(Nc2ccc(N3CCN(C)CC3)cc2)nc1Nc1cccc(NS(=O)(=O)C(C)(C)C)c1` [drawing 258], the figures for the pIC50 at BRD4-BD1 and on JAK2 were 6.59 and 8.00, respectively.
Take `Cc1cnc(Nc2ccc(N3CCN(C)CC3)cc2)nc1Nc1cccc(NS(=O)(=O)C(C)(C)C)c1` [drawing 205]: the pIC50 was 6.68 at BRD4-BD1; 7.89 on BRD4-BD2; 6.43 at BRD2-BD1; 6.67 at BRD3-BD1; 8.00 at JAK2.
For `CN1CCC(NC(=O)c2ccc(Nc3ncc4ccn(-c5cccc(NS(=O)(=O)C6CC6)c5)c4n3)cc2F)CC1`, the pIC50 is 6.07 at BRD4-BD1 and 7.89 at JAK2.
Consider `CC(C)(C)S(=O)(=O)Nc1cccc(-n2ccc3cnc(Nc4ccc(NCCN)cc4)nc32)c1`, for which the results for the pIC50 at BRD4-BD1 and at JAK2 were 6.17 and 7.70, respectively.
In the same order, the values of `CC(C)(C)S(=O)(=O)Nc1cccc(-n2ccc3cnc(Nc4ccc(C(=O)NC5CCNCC5)cc4)nc32)c1` are 6.19 and 7.62.
In the same order, the values of `CC(C)(C)S(=O)(=O)Nc1cccc(-n2ccc3cnc(NC4CCNCC4)nc32)c1` are 5.00 and 5.00.
The like results for `CC(C)(C)S(=O)(=O)Nc1cccc(-c2csc3cnc(Nc4cc(F)c5c(c4)CC4CNCCN54)nc23)c1` (centres unmarked) were, in that order, 6.12 and 8.30.
Regarding `CN1CCN(c2ccc(Nc3ncc4ccn(-c5cccc(NS(=O)(=O)c6ccccc6)c5)c4n3)cc2)CC1` [drawing 287], the negative-log IC50 (pIC50) is 5.00 on BRD4-BD1 and 8.52 at JAK2.
In the same order, the values of `CC(C)(C)S(=O)(=O)Nc1cccc(-n2ccc3cnc(Nc4cc(F)c5c(c4)CC4CNCCN54)nc32)c1` (centres unmarked) are 6.52 and 8.22.
Regarding `CC(C)(C)S(=O)(=O)Nc1cccc(Nc2nc(NC3CCNC(=O)C3)nc3sccc23)c1` (centres unmarked), the results for the pIC50 at BRD4-BD1 and on JAK2 were 5.92 and 5.00, respectively.
The like results for `Cc1cnc(Nc2ccc(N3CCN(C)CC3)cc2)nc1Nc1cccc(NS(=O)(=O)C(C)(C)C)c1` [drawing 375] were, in that order, 6.50 and 8.03.
For `Cc1cnc(Nc2ccc(N3CCN(C)CC3)cc2)nc1Nc1cccc(NS(=O)(=O)C(C)(C)C)c1` [drawing 271], the negative-log IC50 (pIC50) on BRD4-BD1 is 6.66; on BRD4-BD2 it was 7.14; at BRD2-BD1, 6.35; at BRD3-BD1, 6.44; at BRDT-BD1 it was 6.64; on JAK2, 8.15.
As for `Cc1noc(C)c1-c1cccc(-n2ccc3cnc(Nc4ccc(N5CCN(C)CC5)cc4)nc32)c1` [drawing 285], the negative logarithm of the IC50 (pIC50) is 5.63 on BRD4-BD1 and 8.52 on JAK2.
With `CN1CCN(c2ccc(Nc3ncc4scc(-c5cccc(NS(=O)(=O)C(C)(C)C)c5)c4n3)cc2F)CC1`, the figures for the negative-log IC50 (pIC50) at BRD4-BD1 and at JAK2 were 6.41 and 7.74, respectively.
The like results for `CN1CCC(NC(=O)c2ccc(Nc3ncc4ccn(-c5ccc(F)c(NS(=O)(=O)C(C)(C)C)c5)c4n3)cc2F)CC1` [drawing 363] were, in that order, 6.87 and 6.89.
In the same order, the values of `CN(C)C1CCN2c3ccc(Nc4ncc5ccn(-c6cccc(NS(=O)(=O)C(C)(C)C)c6)c5n4)cc3CC2C1` (centres unmarked) [drawing 445] are 6.98 and 7.92.
For the molecule `Cc1cnc(Nc2ccc(N3CCN(C)CC3)cc2)nc1Nc1cccc(NS(=O)(=O)C(C)(C)C)c1` [drawing 339], the negative logarithm of the IC50 (pIC50) at BRD4-BD1 was 6.63; on JAK2, 7.37.
For `Cc1cnc(Nc2ccc(N3CCN(C)CC3)cc2)nc1Nc1cccc(NS(=O)(=O)C(C)(C)C)c1` [drawing 245], the pIC50 at BRD4-BD1 was 6.93; at BRD4-BD2, 7.14; on BRD2-BD1, 6.35; on BRD3-BD1, 6.44; on BRDT-BD1, 6.64; on JAK2 it was 8.40.
For `CC(C)(C)S(=O)(=O)Nc1cccc(Nc2nc(NC3CCNCC3)nc3sccc23)c1` [drawing 203], the pIC50 at BRD4-BD1 is 7.03; at BRD4-BD2 it was 6.51; on BRD2-BD1, 6.34; at BRD3-BD1 it was 6.61.
`CN(C)C1CCN(c2ccc(Nc3ncc4ccn(-c5cccc(NS(=O)(=O)C(C)(C)C)c5)c4n3)cc2)CC1` [drawing 368]: the pIC50 on BRD4-BD1 is 6.72; on JAK2 it was 8.30.
In the case of `CN1CCN(c2ccc(Nc3ncc4ccn(-c5ccc(F)c(NS(=O)(=O)C(C)(C)C)c5)c4n3)cc2F)CC1`, the pIC50 on BRD4-BD1 was 6.83; at JAK2, 7.21.
The like results for `Cc1cnc(Nc2ccc(N3CCN(C)CC3)cc2)nc1Nc1cccc(NS(=O)(=O)C(C)(C)C)c1` [drawing 353] were, in that order, 6.56 and 8.18.
In the same order, the values of `Cc1cnc(Nc2ccc(N3CCN(C)CC3)cc2)nc1Nc1cccc(NS(=O)(=O)C(C)(C)C)c1` [drawing 384] are 6.86 and 8.00.
